Several values for one entry are separate records, joined by “and”; a condition that tells them apart may be missing. Equal values may be shown once. Read-outs that look alike come from different tables or passages of the source.
Tests used:
[1] = Rubino et al., cited from earlier work
[2] = Pharmacokinetics and lung-tissue distribution after oral gavage or intratracheal aerosol; type: in vivo, Sprague-Dawley rats; conditions: for Lung AUC: for time >1 μg/g
Experimental: Solutions were vortexed until all crystals dissolved. […] Plasma samples were taken at pre-dose, 0.08, 0.16, 0.25, 0.5, 0.75, 1.0, 1.5, 2, 4, and 6 hours post dosing. For lung tissue samples, eight additional rats were also dosed 70 mg/kg by the oral route. Lungs were taken at pre-dose 0.08, 0.5, 2, and 4 hours post dosing. Materials were extracted and pirfenidone quantitated as μg/mL plasma and μg/gram lung tissue. […]

[3] = system: bleomycin model of pulmonary fibrosis; experiment: Bleomycin model of pulmonary fibrosis: right lung hydroxyproline content, left lung fibrosis score; type: in vivo, Wistar rats; conditions: for Average Hydroxyproline, difference from bleomycin control: sham-subtracted
Experimental: (§1) To compare anti-fibrotic efficacy between extended-duration intratracheal, direct-lung aerosol administration and oral gavage, the bleomycin model of pulmonary fibrosis was performed. Doses for this study were selected based upon pharmacokinetic parameters obtained in Table 22 (from Example 8). Briefly, Wistar rats (175-225 grams) were administered bleomycin by the intratracheal route using a Penn Century MicroSprayer® catheter. On the seventh day following bleomycin exposure, animals initiated treatment with either saline or pirfenidone. Animals were dosed once a day on days 7 through 28, and euthanized on day 29. Pirfenidone was administered either intratracheally using Penn Century MicroSprayer catheter or by oral gavage. Sham and bleomycin control groups received either no treatment or intratracheal saline by Penn Century MicroSprayer catheter. While dosing more frequently (or less frequently) may improve the observed effects, anesthesia required for intratracheal administration reduced animal weight gain (reduced food intake) and, thus limited dosing to once a day for this study. Because anesthesia reduced weight gain, all study animals (intratracheal, oral and control) received once-a-day isoflurane using the same technique and duration. Twelve animals were enrolled into each dosing group. […] Oral gavage was administered in a single 300 mcL volume. Due to technical restrictions, instead of the mg/kg dose being equally split between six 50 mcL administrations over 2 minutes, intratracheal administration was performed with three equal 50 mcL volumes administered every 40 seconds over the same period. For dose selection, data from Table 22 was extrapolated. On day 29, animals were euthanized. Right lungs were extracted and measured for hydroxyproline content, while left lungs were subjected to histology. Histological sections were stained with picrosirius red and scored for lung tissue fibrosis. Twenty random photographs of each stained lung tissue section were taken, blinded and scored by an independent review panel. Observations were pooled for analysis. […] Doses selected for this study targeted critical pharmacokinetic parameters from the comparator oral route (matching lung tissue Cmax or plasma AUC). These targets were selected from a pharmacokinetic study wherein lung tissue and plasma were collected and pirfenidone levels were compared. In these studies, lung tissue Cmax following intratracheal administration was always the first collected time point. It is important to consider that the duration of time required to collect this first lung tissue may not accurately capture the true lung Cmax. […] It was this pharmacokinetic point that the above Cmax for dosing was selected. If it was possible to collect lung tissue earlier, the Cmax may be higher. As the Penn Century MicroSprayer catheter delivers nearly the entire loaded dose, the possible delivered Cmax in these studies may be higher. […] In this study, we divided the dose into thirds.

[4] = as above; type: in vivo, Wistar rats; conditions: Wistar, rat, plasma, read-out: Plasma AUCO-2 hrs
Experimental: as §1

[5] = Co-solvent and surfactant effects on pirfenidone solubility; type: physicochemical
Experimental: Each sample was agitated at ambient temperature overnight. The samples were visually inspected and appearance recorded. Samples were centrifuged to sediment any un-dissolved material and the supernatant withdrawn via syringe through a 0.22 μm PVDF filter. […] The remaining filtered sample was split into three equal volumes in glass vials and placed at 25° C./60RH, 40° C./75RH and refrigeration. Samples are wrapped in aluminum foil to reduce light exposure. After the first night of incubation, samples are briefly visually inspected for any signs of discoloration or precipitate formation.

[6] = cited from earlier work; for oral Cmax / Cmax: IPF patients; for Cmax: read-out: oral Cmax
[7] = Intravenous push of pirfenidone to a mouse: plasma and lung levels; type: in vivo; conditions: 40 mg/kg intravenous dose; blood about 40% of wet lung weight
Experimental: Exemplary Lung Tissue Delivery Assumptions: • 1. The total wet weight of the adult human lung is about 685 to 1,050 grams (for calculations, conservatively about […]); • 2. The adult human lung blood volume is about 450 mL; • 3. The tissue weight of the adult human lung is conservatively 1,050 grams wet weight minus 450 mL blood weight (assuming density of 1.0), equals 600 grams; • 4. […] The inhaled route of administration is dependent upon a respirable delivered dose (RDD). The RDD is the fraction of drug inhaled in aerosol particles less than 5 microns in diameter; • 7. RDD of typical dry powder, liquid nebulization or meter-dose inhalation devices ranges from 10% to 70%. Higher and lower efficiency devices with RDDs greater than 70% and less than 10% also exist; • 8. […] From the above observations and calculations, the lower limit of efficacy in lung tissue is 8 mcg/gram; and • 10.

[8] = bolus aerosol intratracheal 1 mg/kg
[9] = bolus aerosol intratracheal 5 mg/kg

Cc1ccc(=O)n(-c2ccccc2)c1 [pirfenidone, 5-methyl-1-phenyl-2-(1H)-pyridone]
T1/2 beta ([1]; lung tissue (derived solely from plasma T1/2), aerosol 110 mg RDD, 2009 fasted-state): 2.5 h | T1/2 beta ([1]; lung tissue (derived solely from plasma T1/2), aerosol 154 mg RDD, 2009 fasted-state): 2.5 h | T1/2 beta ([1]; lung tissue (derived solely from plasma T1/2), aerosol 185 mg RDD, 2009 fasted-state): 2.5 h | T1/2 beta ([1]; lung tissue (derived solely from plasma T1/2), oral 801 mg, fasted-state, 2009): 2.5 h | T1/2 beta ([1]; lung tissue (derived solely from plasma T1/2), oral 801 mg, fed-state, 2009): 2.4 h | T1/2 beta ([1]; plasma, aerosol 110 mg RDD, 2009 fasted-state): 2.5 h | T1/2 beta ([1]; plasma, aerosol 154 mg RDD, 2009 fasted-state): 2.5 h | T1/2 beta ([1]; plasma, aerosol 185 mg RDD, 2009 fasted-state): 2.5 h | T1/2 beta ([1]; plasma, oral 801 mg, fasted-state, 2009): 2.5 h | T1/2 beta ([1]; plasma, oral 801 mg, fed-state, 2009): 2.4 h | Lung TOE: time of exposure over 1 μg/g lung tissue [2, 8]: 5 min | Lung Cmax ([2]; bolus aerosol intratracheal 1 mg/kg, immediate post-dose calculated from the direct-lung delivered dose): 101 µg/g | Lung TOE: time of exposure over 1 μg/g lung tissue [2, 9]: 84 min | Lung Cmax ([2]; bolus aerosol intratracheal 5 mg/kg, immediate post-dose calculated from the direct-lung delivered dose): 508 µg/g | Lung AUC [2, 8]: 5.2 mg·h/kg | Lung AUC [2, 9]: 25.4 mg·h/kg | Lung AUC ([2]; oral 70 mg/kg): 4.3 mg·h/kg | Lung Cmax ([2]; oral 70 mg/kg): 3.6 µg/g | Lung TOE: time of exposure over 1 μg/g lung tissue ([2]; oral 70 mg/kg): 89 min | possible lung tissue Cmax ([3]; 0.9 mg/kg intratracheal dose divided into thirds): about 50 mcg/gram lung tissue | possible lung tissue Cmax ([3]; 0.9 mg/kg intratracheal dose to a 250 gram rat, lung about 1.5 grams, whole dose): ≤ 150 mcg/gram | anti-fibrotic efficacy ([3]; 3.0 mg/kg intratracheal, direct lung aerosol rat dose): no observed pirfenidone efficacy | Lung Tissue AUC0-2 hrs ([3]; Bleomycin + IT 0.9 mg/kg): 2.6 µg·h/g | Lung Tissue Cmax ([3]; Bleomycin + IT 0.9 mg/kg): 11.6 µg/g | Average Hydroxyproline, difference from bleomycin control ([3]; Bleomycin + IT 0.9 mg/kg): −0.70*, **** mg/rightlung | Lung Tissue AUC0-2 hrs ([3]; Bleomycin + IT 3.0 mg/kg): 7.3 µg·h/g | Lung Tissue Cmax ([3]; Bleomycin + IT 3.0 mg/kg): 33.5 µg/g | Average Hydroxyproline, difference from bleomycin control ([3]; Bleomycin + IT 3.0 mg/kg): −0.02**, **** mg/rightlung | Lung Tissue AUC0-2 hrs ([3]; Bleomycin + IT 6.4 mg/kg): 15.5 µg·h/g | Lung Tissue Cmax ([3]; Bleomycin + IT 6.4 mg/kg): 71.5 µg/g | Average Hydroxyproline, right lung ([3]; Bleomycin + IT 6.4 mg/kg once a day, days 7 through 28): 3.50 mg/right lung | Average Hydroxyproline, difference from bleomycin control ([3]; Bleomycin + IT 6.4 mg/kg): −0.08***, **** mg/rightlung | Lung Tissue AUC0-2 hrs ([3]; Bleomycin + PO 30 mg/kg): 18.2 µg·h/g | Lung Tissue Cmax ([3]; Bleomycin + PO 30 mg/kg): 11.8 µg/g | Lung Tissue AUC0-2 hrs ([3]; Bleomycin + PO 100 mg/kg): 34.4 µg·h/g | Lung Tissue Cmax ([3]; Bleomycin + PO 100 mg/kg): 33.6 µg/g | anti-fibrotic efficacy, direct lung delivery versus oral ([3]; intratracheal aerosol versus oral gavage): more efficacious (less fibrosis and less hydroxyproline) | AUC ([4]; inhaled or intranasal, Bleomycin + IT 0.9 mg/kg): 3000 ng·h/mL | AUC ([4]; inhaled or intranasal, Bleomycin + IT 3.0 mg/kg): 7700 ng·h/mL | AUC ([4]; inhaled or intranasal, Bleomycin + IT 6.4 mg/kg): 16500 ng·h/mL | AUC ([4]; Bleomycin + PO 30 mg/kg): 16600 ng·h/mL | AUC ([4]; Bleomycin + PO 100 mg/kg): 29600 ng·h/mL | Pirfenidone Saturation Solubility ([5]; 4% EtOH, 0.1% CPB, 95.9% water, pH 4.9): 20.2 mg/mL | effect of co-solvent on saturation solubility ([5]; ethanol (EtOH) or propylene glycol (PG)): increase the saturation solubility | effect of co-solvents on saturation solubility ([5]; ethanol and propylene glycol together): additive effect in increasing the saturation solubility | duration of plasma level at or greater than 5 mcg/mL ([6]; 801 mg oral pirfenidone): 4 h | oral Cmax ([6]; fasting-state): about 15.7 mcg/mL | Cmax ([6]; fasting-state): ~84 µM | oral Cmax ([6]; recommended fed-state): about 7.9 mcg/mL | Cmax ([6]; recommended fed-state): ~42 µM | change in Tmax by food ([6]; oral, fed-state): seven-fold increase | reduction in Cmax by food ([6]; oral, fed-state): ~50% | reduction in overall exposure (AUC) by food ([6]; oral, fed-state): 10-15% and ~20% | lung tissue level after subtracting blood contribution [7]: about 8 mcg/g

From patent publication US11452718B2 (AVALYN PHARMA INC., priority 2012, dated 2022)
